# Data from patent publication US20140186268A1, “Oxide Ferrimagnetics with Spinel Structure Nanoparticles and Iron Oxide Nanoparticles, Biocompatible Aqueous Colloidal Systems Comprising Nanoparticles, Ferriliposomes, and Uses Thereof” (priority 2011, published 2014).
# How the values were obtained:
# [1] = tested on: orthotopic allograft mouse breast cancer model; experiment: Doxorubicin treatment, orthotopic allograft mouse breast cancer model; format: in vivo; conditions: single dose 15 mg/kg, two weeks after administration
# Method: Doxorubicin hydrochloride (Sigma) was dissolved in ferromagnetic iron oxide nanoparticles containing stabilizing buffer and then encapsulated into PEGylated liposomes. Three weeks after transplantations of primary cells (average tumour volume 75 mm^3) ferriliposomes loaded with doxorubicin were administered at a dose of 15 mg/kg (Dox+FLt, n=4). Magnets of 0.33 T (diameter 4.5 mm) were glued to the tumour by cyanoacrylate before injection and removed by acetone 24 hours after administration. Control group was treated with systemic administration of doxorubicin without any targeting (Dox, n=4). The horizontal and vertical tumour diameters were measured by digital calliper twice per week and volumes were calculated using the formula V=(a×b2)π/6 where a and b are the longer and shorter diameter of the tumour, respectively.
# [2] = set-up: species or system rats; conditions: rat, in vivo, 500 mg/kg
# Method: Female rats were treated with 500 mg/kg of iron oxide nanoparticles (n=16) and stabilizing buffer (n=8) as control. […] were sacrificed at day 7 and 12 after injection. Blood was collected and serum separation performed by centrifugation in Li-heparin 0.6 ml flasks (Fuji Photo Film Co., Ltd. Life Science Products Division). Biochemical parameters of creatinine, urea nitrogen, alanine transaminase, aspartate transaminase, creatine phosphokinase and total bilirubin in blood were analyzed by biochemical analyzer Fujifilm DRI CHEM 3500i (Fuji Photo Film Co., Ltd. Life Science Products Division). The kidneys, spleen, liver, heart and lung tissues were collected and fixed in 10% neutral formalin. Organs were dehydrated and maintained in paraffin blocks. 5 μm paraffin sections were stained by hematoxylin and eosin for histo-pathological analysis. iron oxide nanoparticles were detected in animal tissues by Prussian blue staining with carmine (Sigma).
Compound,reduction of tumour volume [1] [%],"histo-pathological analysis of lung, liver, kidney and spleen [2]"
COc1cccc2c1C(=O)c1c(O)c3c(c(O)c1C2=O)C[C@@](O)(C(=O)CO)C[C@@H]3O[C@H]1C[C@H](N)[C@H](O)[C@H](C)O1 [doxorubicin],60,
Fe3O4 [iron oxide nanoparticles],,No morphological changes
